Usually IC50 stands for the midpoint of a concentration-inhibition curve.

Among the data in patent publication US11021481B2, “Substituted isoindolin-1-ones and 2,3-dihydro-1h-pyrrolo[3,4-c]pyridin-1-ones as HPK1 antagonists” (Nimbus Saturn, Inc., priority 2019, dated 2021) are IC50 values, retold here.

HPK1, sequence (Q92918 whole entry): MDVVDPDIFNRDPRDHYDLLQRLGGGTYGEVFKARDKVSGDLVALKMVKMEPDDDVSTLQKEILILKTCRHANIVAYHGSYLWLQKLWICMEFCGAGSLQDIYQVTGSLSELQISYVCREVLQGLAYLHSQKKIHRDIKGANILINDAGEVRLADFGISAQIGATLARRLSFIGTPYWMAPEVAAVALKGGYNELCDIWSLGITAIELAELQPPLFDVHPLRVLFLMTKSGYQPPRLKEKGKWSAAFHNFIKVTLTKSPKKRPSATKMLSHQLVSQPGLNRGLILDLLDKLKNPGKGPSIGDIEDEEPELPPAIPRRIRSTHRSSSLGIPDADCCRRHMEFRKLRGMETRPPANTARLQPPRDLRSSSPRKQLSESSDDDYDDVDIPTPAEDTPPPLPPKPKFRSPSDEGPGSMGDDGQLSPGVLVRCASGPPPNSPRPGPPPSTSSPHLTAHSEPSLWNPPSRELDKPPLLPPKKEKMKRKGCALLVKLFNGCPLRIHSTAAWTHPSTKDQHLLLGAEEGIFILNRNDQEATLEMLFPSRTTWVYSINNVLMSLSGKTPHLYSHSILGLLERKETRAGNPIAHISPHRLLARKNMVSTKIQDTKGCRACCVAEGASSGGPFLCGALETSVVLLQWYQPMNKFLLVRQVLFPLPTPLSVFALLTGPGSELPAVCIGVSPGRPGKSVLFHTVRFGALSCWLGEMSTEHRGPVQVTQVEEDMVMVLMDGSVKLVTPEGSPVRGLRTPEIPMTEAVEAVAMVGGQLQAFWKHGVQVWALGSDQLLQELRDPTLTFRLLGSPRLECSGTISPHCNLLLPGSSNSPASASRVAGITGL

This test concerns the target HPK1 (Homo sapiens (Human), UniProt Q92918). As to the kind of experiment: HPK1 biochemical enzyme assay (microfluidic mobility shift assay). The settings on record: 1.5 nM HPK1, ATP 1 mM final, 30 min preincubation, 60 min at RT, Caliper EZ Reader; read-out: HPK1 1000UMATP caliper IC50. The procedure, abridged: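 Mobility shift readout of HPK1 activity after a 60 min RT reaction with 1 mM ATP, 1 μM substrate and 5 mM MgCl2. Enzyme/substrate mix was first exposed to compounds for 30 min, using ten-point curves topping at 3 μM final.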
On to `CNC1CCN(c2ccc(Nc3cnc(-c4ccnc5c4ccn5C)c4c3C(=O)NC4)nc2)CC1(F)F` (stereo not shown) [I-453, 7-[[5-[3,3-difluoro-4-(methylamino)-1-piperidyl]-2-pyridyl]amino]-4-(1-methylpyrrolo [2,3-b]pyridin-4-yl)-2,3-dihydropyrrolo [3,4-c]pyridin-1-one], for which the half-maximal inhibitory concentration (IC50) was < 100 nM.

As for `O=C1NCc2c(-c3cnc4cc(F)ccn34)ccc(Nc3ccc(N4CCO[C@H](CO)C4)cn3)c21` [I-454, 4-(7-fluoroimidazo [1,2-a]pyridin-3-yl)-7-[[5-[(2S)-2-(hydroxymeth-yl)morpliolin-4-yl]-2-pyridyl]amino] isoindolin-1-one], the IC50 is < 100 nM.

Take `COC1CCN(c2ccc(Nc3cnc(-c4cnc5c(F)cccn45)c4c3C(=O)NC4)nc2)CC1` [I-455, 4-(8-fluoroimidazo [1,2-a]pyridin-3-yl)-7-[[5-(4-methoxy-1-piperidyl)-2-pyridyl]amino]-2,3-dihydropyrrolo [3,4-c]pyridin-1-one]: the half-maximal inhibitory concentration (IC50) fell in the range of 100 to 1000 nM.

Consider `Cc1ccn2c(-c3ccc(Nc4ccc(C(C)(C)C(=O)NCCN(C)C)cn4)c4c3CNC4=O)cnc2c1F` [I-456, N-[2-(dimethylami-no)ethyl]-2-[6-[[7-(8-fluoro-7-methyl-imidazo[1,2-a]pyridin-3-yl)-3-oxo-isoindolin-4-yl]amino]-3-pyridyl]-2-methyl-propanamide], for which the concentration for half-maximal inhibition (IC50) was < 100 nM.

On to `CC(C)(O)[C@@H]1CN(c2ccc(Nc3ccc(-c4cnc5cnccn45)c4c3C(=O)NC4)nc2)CCO1` [I-457, 7-[[5-[(2S)-2-(1-hydroxy-1-methyl-ethyl)morpholin-4-yl]-2-pyridyl]amino] 4-imidazo[1,2-a]pyrazin-3-yl-isoindolin-1-one], for which the half-maximal inhibitory concentration (IC50) was < 100 nM.

For the compound `CC(C)(O)[C@H]1CN(c2ccc(Nc3cnc(-c4cnc5c(F)cccn45)c4c3C(=O)NC4)nc2)CCO1` [I-458, 4-(8-fluoroimidazo [1,2-a]pyridin-3-yl)-7-[[5-[(2R)-2-(1-hydroxy-1-methyl-ethyl)morpholin-4-yl]-2-pyridyl]amino]-2,3-dihydropyrrolo [3,4-c]pyridin-l-one], the half-inhibitory concentration (IC50) is < 100 nM.

For `Cn1ccc2c(-c3ncc(Nc4ccc(N5CCO[C@@H](C(C)(C)O)C5)cn4)c4c3CNC4=O)ccnc21` [I-459], the IC50 is < 100 nM.

Regarding `Cc1ccn2c(-c3ccc(Nc4ccc(N5CCO[C@@H](CO)C5)cn4)c4c3CNC4=O)cnc2c1F` [I-460, 4-(8-fluoro-7-methyl-imidazo[1,2-a]pyridin-3-yl)-7-[[5-[(2R)-2-(hydroxymeth-yl)morpholin-4-yl]-2-pyridyl]amino] isoindolin-1-one], the IC50 was < 100 nM.

As for `COc1cccn2c(-c3ncc(Nc4ccc(N5CCC[C@H](C(C)(C)O)C5)cn4)c4c3CNC4=O)cnc12` [I-461, 7-[[5-[(3S)-3-(1-hydroxy-1-methylethyl)-1-piperipyl]-2-pyridyl]amino]-4-(8-methoxyimi-dazo[1,2-a]pyridin-3-yl)-2,3-dihydro-pyrrolo[3,4-c]pyridin-1-one], the half-inhibitory concentration (IC50) is < 100 nM.

`CC(C)(O)[C@H]1CN(c2ccc(Nc3cnc(-c4cnc5c(Cl)cccn45)c4c3C(=O)NC4)nc2)CCO1` [I-462]: the IC50 is < 100 nM.

Turning to `Cc1ccn2c(-c3ccc(Nc4ccc(N5CCO[C@H](C(C)(C)O)C5)cn4)c4c3CNC4=O)cnc2c1F` [I-463, 4-(8-fluoro-7-methyl-imidazol [1,2-a]pyridin-3-yl)-7-[[5-[(2S)-2-(1-hydroxy-1-methyl-ethyl)morpholin-4-yl]-2-pyridyl]amino]isoindolin-1-one], the IC50 is < 100 nM.

As to `O=C1NCc2c(-c3cnn4ccccc34)ncc(Nc3ccc(N4CCC(O)CC4)cn3)c21` [I-464, 7-[[5-(4-hydroxy-1-piperidyl)-2-pyridyl]amino] 4-pyrazolo[1,5-a]pyridin-3-yl-2,3-dihydropyrrolo [3,4-c]pyridin-l-one], the half-inhibitory concentration (IC50) was < 100 nM.

Regarding `O=C1NCc2c(-c3cnn4cc(F)ccc34)ccc(Nc3ccc(N4CCC(O)CC4)cn3)c21` [I-465, 4-(6-fluoropyrazolo [1,5-a]pyridin-3-yl)-7-[[5-(4-hydroxy-1-piperidyl)-2-pyridyl]amino] isoindolin-1-one], the IC50 was < 100 nM.
